One may read the EC50 as the concentration at which the effect is half-maximal.

A value given as a limit tells only on which side of the number the result lay.

The first assay concerns monocistronic NK5.1 HCV replicon in Huh7 cells. The assay is described as follows: HCV replicon assay, monocistronic replicon cell line. In kind it is cell-based, hepatitis C virus. Conditions: Hepatitis C virus, Huh-7, 72 h; Table 1; monocistronic replicon in Huh7 cells, 3 days incubation, HCV RNA/GAPDH RNA by TaqMan RT-PCR; read-out: Mono EC50 Median. Summed up: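 Huh7 cells carrying the monocistronic NK5.1 replicon, seeded 24 h before dosing, were exposed to six-point half-log compound series (0.6% DMSO) for 3 days at 37 °C. Replicon RNA was quantified by TaqMan RT-PCR, normalised to GAPDH and compared with DMSO controls to derive EC50.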
A general note: In antiviral work, replicon cells carry a viral genome segment that copies itself.
With `COc1ccc(OCc2ccccc2)c(-c2ccn(-c3ncccc3C(F)(F)F)n2)c1` [Compound 80, 2-[3-(2-Benzyloxy-5-methoxy-phenyl)-pyrazol-1-yl]-3-trifluoromethyl-pyridine], the EC50 is 1.8 µM.
Take `COc1ccc(O)c(-c2nc(-c3ncccc3C(F)(F)F)no2)c1` [Compound 208, 4-Methoxy-2-[3-(3-trifluoromethyl-pyridin-2-yl)-[1,2,4]oxadiazol-5-yl]-phenol]: the EC50 was 3.5 µM.
Same read-out and setting: in the case of `COc1ccc2ccccc2c1-c1nc(-c2nccc3ccccc23)no1` [Compound 203, 1-[5-(2-Methoxy-naphthalen-1-yl)-[1,2,4]oxadiazol-3-yl]-isoquinoline] it was 23 µM; in that of `COc1cccc(-c2cc(-c3ccccn3)on2)c1O` [Compound 124, 2-Methoxy-6-(5-pyridin-2-yl-isoxazol-3-yl)-phenol], 26 µM; in that of `Oc1ccc(Cl)cc1-c1nc(-c2ccccn2)no1` [Compound 145, 4-Chloro-2-(3-pyridin-2-yl-[1,2,4]oxadiazol-5-yl)-phenol], 2.3 µM.
Regarding `CCOC(=O)c1cc(-c2ccc3ccccc3c2)n(-c2ncccc2C(F)(F)F)n1` [Compound 67, 5-Naphthalen-2-yl-1-(3-trifluoromethyl-pyridin-2-yl)-1H-pyrazole-3-carboxylic acid ethyl ester], the half-maximal effective concentration (EC50) stood at 22 µM.
On to `Cc1cc(O)c(-c2cc(C)n(-c3ccc(C(C)C)cc3)n2)cc1C` [Compound 30, 2-[1-(4-Isopropyl-phenyl)-5-methyl-1H-pyrazol-3-yl]-4,5-dimethyl-phenol], for which the EC50 amounted to 12 µM.
`COc1ccc(-c2ccnn2-c2c(Cl)cncc2Cl)c(F)c1` [Compound 50, 3,5-Dichloro-4-[5-(2-fluoro-4-methoxy-phenyl)-pyrazol-1-yl]-pyridine]: the EC50 came out at 5.8 µM.
On to `COc1ccc2ccccc2c1-c1nc(-c2ccccn2)no1` [Compound 143, 2-[5-(2-Methoxy-naphthalen-1-yl)-[1,2,4]oxadiazol-3-yl]-pyridine], for which the EC50 was 13 µM.
For the compound `CN(C)c1ccc(-c2nc(-c3ccccn3)no2)c(O)c1` [Compound 163, 5-Dimethylamino-2-(3-pyridin-2-yl-[1,2,4]oxadiazol-5-yl)-phenol], the EC50 was found to be 1.5 µM.
Take `Cc1cc(-c2ccc3ccccc3c2O)n(-c2ccc(Cl)cc2)n1` [Compound 19, 2-[2-(4-Chloro-phenyl)-5-methyl-2H-pyrazol-3-yl]-naphthalen-1-ol]: the EC50 is 17 µM.
For `COc1cc(OCc2ccccc2)c(-c2ccn(-c3ccccn3)n2)cc1OC` [Compound 121, 2-[3-(2-Benzyloxy-4,5-dimethoxy-phenyl)-pyrazol-1-yl]-pyridine], the EC50 is 13.5 µM.
`Oc1ccc(O)c(-c2nc(-c3ccccn3)no2)c1` [Compound 150, 2-(3-Pyridin-2-yl-[1,2,4]oxadiazol-5-yl)-benzene-1,4-diol]: the EC50 is 16 µM.
Still for that read-out and setting: the same measure for `Oc1ccc(Cl)cc1-c1nc(-c2nccc3ccccc23)no1` [Compound 198, 4-Chloro-2-(3-isoquinolin-1-yl-[1,2,4]oxadiazol-5-yl)-phenol]: more than 32 µM; for `CCOc1ccc(-c2nc(-c3ncccc3-c3ccccc3)no2)c(O)c1` [Compound 234, 5-Ethoxy-2-[3-(3-phenyl-pyridin-2-yl)-[1,2,4]oxadiazol-5-yl]-phenol]: more than 19 µM.

The assay is the same for the next values; noted with them: Hepatitis C virus, Huh-7, 72 h; table T3 (compounds 471-640); monocistronic replicon in Huh7 cells, 3 days incubation, HCV RNA/GAPDH RNA by TaqMan RT-PCR; read-out: Mono EC50 Median.
Regarding `Cc1cccnc1-c1nc(-c2cc(F)ccc2O)n(C)n1` [Compound 608, 4-Fluoro-2-[2-methyl-5-(3-methyl-pyridin-2-yl)-2H-[1,2,4]triazol-3-yl]-phenol], the EC50 amounted to 8.1 µM.
Still for that read-out and setting: in the case of `Cc1ccc(O)c(-c2nc(-c3ncccc3C(F)(F)F)n[nH]2)c1` [Compound 540, 4-Methyl-2-[5-(3-trifluoromethyl-pyridin-2-yl)-2H-[1,2,4]triazol-3-yl]-phenol] it was more than 19 µM; in that of `Oc1cc(OCc2ccccc2)ccc1-c1nc(-c2cnccn2)n[nH]1` [Compound 581, 5-Benzyloxy-2-(5-pyrazin-2-yl-2H-[1,2,4]triazol-3-yl)-phenol], more than 32 µM; in that of `COc1ccc(-c2nc(-c3ncccc3Br)n[nH]2)c(O)c1` [Compound 494, 2-[5-(3-Bromo-pyridin-2-yl)-2H-[1,2,4]triazol-3-yl]-5-Methoxy-phenol], more than 32 µM.
Same read-out and setting: the same measure for `COc1ccc(O)c(-c2nc(-c3ccc(C(F)(F)F)cn3)n[nH]2)c1` [Compound 510, 4-Methoxy-2-[5-(5-trifluoromethyl-pyridin-2-yl)-2H-[1,2,4]triazol-3-yl]-phenol]: more than 19 µM; for `Cn1nc(-c2ccccn2)nc1-c1ccc(OCc2ccccc2)cc1O` [Compound 600, 5-Benzyloxy-2-(2-methyl-5-pyridin-2-yl-2H-[1,2,4]triazol-3-yl)-phenol]: 5 µM.
Still for that read-out and setting: the same measure for `CCOc1cccc(-c2nc(-c3ccc(C(F)(F)F)cn3)n[nH]2)c1O` [Compound 512, 6-Ethoxy-2-[5-(5-trifluoromethyl-pyridin-2-yl)-2H-[1,2,4]triazol-3-yl]-phenol]: more than 19 µM.
Take `Oc1ccccc1-c1nc(-c2ncccc2Br)n[nH]1` [Compound 495, 2-[5-(3-Bromo-pyridin-2-yl)-2H-[1,2,4]triazol-3-yl]-phenol]: the EC50 was determined as 15 µM.

Staying with this assay, now noted: Hepatitis C virus, Huh-7; monocistronic NK5.1 HCV replicon in Huh7 cells; median value; read-out: Mono EC50 Median.
For `Cc1cccnc1-c1n[nH]c(-c2cc3c4c(c2O)C(C)(C)CCN4CCC3(C)C)n1` [Compound 456, 1,1,7,7-Tetramethyl-9-[5-(3-methyl-pyridin-2-yl)-2H-[1,2,4]triazol-3-yl]-2,3,6,7-tetrahydro-1H,5H-pyrido[3,2,1-ij]quinolin-8-ol], the EC50 was found to be 0.73 µM.
Regarding `COc1cccc(-c2nc(-c3ccccn3)n[nH]2)c1O` [Compound 362, 6-Methoxy-2-(5-pyridin-2-yl-2H-[1,2,4]triazol-3-yl)-phenol], the EC50 is more than 19 µM.
On the same count and under the same terms, in the case of `COc1ccc(O)c(-c2nc(-c3ccc(NC(C)=O)cn3)no2)c1` [Compound 262, N-{6-[5-(2-Hydroxy-5-methoxy-phenyl)-[1,2,4]oxadiazol-3-yl]-pyridin-3-yl}-acetamide] it was 19.2 µM; in that of `COc1ccccc1-c1nnc(-c2ccco2)o1` [Compound 330, 2-Furan-2-yl-5-(2-methoxy-phenyl)-[1,3,4]oxadiazole], more than 32 µM.
On to `Cc1ccc(-c2nc(-c3ncccc3C)no2)c(O)c1` [Compound 295], for which the EC50 came out at 2.1 µM.
As for `Cc1cccnc1-c1n[nH]c(-c2cc(C(C)(C)C)ccc2O)n1` [Compound 441, 4-tert-Butyl-2-[5-(3-methyl-pyridin-2-yl)-2H-[1,2,4]triazol-3-yl]-phenol], the EC50 is more than 10 µM.
Still for that read-out and setting: the same measure for `Fc1ccccc1-c1nnc(-c2ncccc2C(F)(F)F)o1` [Compound 348, 2-[5-(2-Fluoro-phenyl)-[1,3,4]oxadiazol-2-yl]-3-trifluoromethyl-pyridine]: more than 32 µM; for `O=[N+]([O-])c1cccc(-c2nc(-c3nccc4ccccc34)n[nH]2)c1` [Compound 379]: more than 19 µM.
Regarding `COc1ccc(-c2nc(-c3ncccc3C)n[nH]2)c(O)c1` [Compound 451, 5-Methoxy-2-(5-(3-methyl-pyridin-2-yl)-2H-[1,2,4]triazol-3-yl)-phenol], the EC50 came out at 23 µM.
Still for that read-out and setting: the same measure for `c1ccc(-c2n[nH]c(-c3cccc4ccccc34)n2)nc1` [Compound 350, 2-(5-Naphthalen-1-yl-1H-[1,2,4]triazol-3-yl)-pyridine]: more than 19 µM; for `CCOc1ccc(-c2nc(-c3ncccc3-c3ccccc3)no2)c(O)c1` [Compound 234, 5-Ethoxy-2-[3-(3-phenyl-pyridin-2-yl)-[1,2,4]oxadiazol-5-yl]-phenol]: more than 19 µM.

(Values after patent US20050075375A1 (priority 2003, published 2005).)
